Assays:
[1] = target: SaFtsZ (Staphylococcus aureus, UniProt P0A031); assay: GTPase assay, malachite green phosphate detection; type: biochemical
[2] = target: EcFtsZ (Escherichia coli, UniProt P0A9A6); assay: GTPase assay, malachite green phosphate detection; type: biochemical
[3] = target: T1, BsFtsZ (Bacillus subtilis, UniProt P17865); assay: fluorescence anisotropy titration with FtsZ; type: binding
T1 sequence (P17865 1-382): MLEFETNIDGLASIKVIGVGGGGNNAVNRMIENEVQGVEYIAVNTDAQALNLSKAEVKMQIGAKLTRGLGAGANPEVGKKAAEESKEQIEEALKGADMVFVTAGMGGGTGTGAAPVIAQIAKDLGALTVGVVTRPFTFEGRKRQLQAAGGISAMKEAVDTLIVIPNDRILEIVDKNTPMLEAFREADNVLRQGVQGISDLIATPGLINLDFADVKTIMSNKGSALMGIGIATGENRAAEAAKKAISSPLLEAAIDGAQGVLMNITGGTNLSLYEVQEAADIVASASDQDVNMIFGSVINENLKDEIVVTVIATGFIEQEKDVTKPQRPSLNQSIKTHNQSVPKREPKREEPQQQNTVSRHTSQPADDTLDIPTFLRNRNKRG

SaFtsZ, sequence (P0A031 whole entry): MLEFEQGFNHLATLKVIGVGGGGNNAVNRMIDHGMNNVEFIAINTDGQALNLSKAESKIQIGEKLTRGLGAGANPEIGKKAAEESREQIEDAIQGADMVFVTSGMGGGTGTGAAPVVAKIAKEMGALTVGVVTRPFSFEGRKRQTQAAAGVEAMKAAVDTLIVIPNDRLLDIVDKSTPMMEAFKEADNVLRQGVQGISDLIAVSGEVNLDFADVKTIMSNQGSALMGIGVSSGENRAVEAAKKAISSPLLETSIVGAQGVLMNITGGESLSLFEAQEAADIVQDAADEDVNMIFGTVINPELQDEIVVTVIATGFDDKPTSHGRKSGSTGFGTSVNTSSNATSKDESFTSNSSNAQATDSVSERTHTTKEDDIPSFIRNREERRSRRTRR
EcFtsZ, sequence (P0A9A6 whole entry): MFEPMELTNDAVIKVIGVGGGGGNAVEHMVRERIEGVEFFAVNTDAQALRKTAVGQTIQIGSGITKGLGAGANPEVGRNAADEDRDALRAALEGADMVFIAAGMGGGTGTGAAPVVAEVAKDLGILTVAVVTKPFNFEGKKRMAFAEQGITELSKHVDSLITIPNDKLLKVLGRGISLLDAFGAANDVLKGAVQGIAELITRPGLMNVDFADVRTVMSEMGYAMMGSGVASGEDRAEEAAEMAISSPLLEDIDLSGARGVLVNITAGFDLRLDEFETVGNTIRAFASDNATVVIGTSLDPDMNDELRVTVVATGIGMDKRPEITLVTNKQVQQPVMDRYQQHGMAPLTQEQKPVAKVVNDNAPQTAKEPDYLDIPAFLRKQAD

With hemi-chrysophaentin [compound 2] the IC50 [1] was 38 ± 9 µM and the IC50 [2] was 37 ± 7 µM.
mant-GTP was tested, and the Ka [3] was “(9.9 ± 0.5) × 10^5 (Ka) M^−1”.
